# According to US10111935B2, “Agent for capturing tumor cells and methods of use thereof” (priority 2014, dated 2018):
# Like-named read-outs stand apart in the source and are kept apart here.
# Tested on: SKOV3 cells
# Test: IC50 concentration of standard ovarian cancer chemotherapy
# Assay type: cell-based
smiles,measurement,setting,value
N.N.O=C([O-])C1(C(=O)[O-])CCC1.[Pt+2] [Carboplatin],IC50,"Carboplatin individually, read-out: IC50",10 µM
same,IC50,"Carboplatin part of the combination, read-out: IC50 in combination Paclitaxel+Carboplatin",1 µM
